The numbers were not newly measured in patent US20130267590A1, “RETIGABINE COMPOSITIONS” (Dr. Reddy's Laboratories Limited, priority 2011, published 2013), which cites them from elsewhere.

In data set [1] the test system is KCNQ (Kv7.2 to 7.5) family of ion channels. Particulars: in vitro.

Where a name gives a salt, the structure may show the parent alone.

As for `CCOC(=O)Nc1ccc(NCc2ccc(F)cc2)cc1N` [dihydrochloride salt of retigabine], the storage stability entry (medium to long-term storage at −18° C.) is listed as “unstable”.

For `CCOC(=O)Nc1ccc(NCc2ccc(F)cc2)cc1N` [retigabine, ethyl 2-amino-4-(4-fluorobenzylamino) phenylcarbamate], the oxidation stability entry (contact with air) was “oxidize upon contact with air”. For the same compound, the “effect on transmembrane potassium currents mediated by KCNQ channels” value in data set [1] is listed as “enhances transmembrane potassium currents”.
